We go through ten molecules from US4189433A, “4-Hydroxy-1,2-benzisothiazoles and their manufacture” (BASF Aktiengesellschaft, priority 1977, dated 1980).

Series [1] has as its target T1, cardiac β1-receptors (Rattus norvegicus, UniProt P18090).
T1 construct: in pithed rats (Sprague-Dawley, Mus rattus; weight 230-280 g); from tissue; host or cells: heart in situ of pithed Sprague-Dawley rats (in vivo)
Kind of series: β1-sympatholytic action: inhibition of Isoproterenol tachycardia in pithed rats. The class given is in vivo, rat (Sprague-Dawley. As to conditions: Propranolol = 1.00, intravenous. From the text: (§1) The following are examples of compounds of the general formula III and/or of their acid addition salts with a physiologically safe acid: 4-(2-hydroxy-3-isopropylamino-propoxy)-1,2-benzisothiazole (III), 4-(2-hydroxy-3-tert.-butylaminopropoxy)-1,2-benzisothiazole (IV), 4-[2-hydroxy-3-(3-methylpentyl-3-amino)-propoxy]-1,2-benzisothiazole (VII), 4-[2-hydroxy-3-(2-methyl-butyl-2-amino)-propoxy]-1,2-benzisothiazole (VI), 4-[2-hydroxy-3-(2-methyl-3-but-2-ynylamino)-propoxy]-1,2-benzisothiazole (VIII), 4-(2-hydroxy-3-sec.-butylaminopropoxy-1,2-benzisothiazole (V), 4-[2-hydroxy-3-(1-methoxy-propyl-2-amino)-propoxy]-1,2-benzisothiazole (IX) and 4-[2-hydroxy-3-(pentyl-2-amino)-propoxy]-1,2-benzisothiazole (X).

Series [2] deals with T2, β2-receptors on the blood vessels (Rattus norvegicus, UniProt P10608).
T2 construct: was tested on rats, weighing 230-280 g, under urethane narcosis; from tissue; host or cells: blood vessels in situ of urethane-anaesthetised rats (in vivo)
T2 sequence (P10608 whole entry): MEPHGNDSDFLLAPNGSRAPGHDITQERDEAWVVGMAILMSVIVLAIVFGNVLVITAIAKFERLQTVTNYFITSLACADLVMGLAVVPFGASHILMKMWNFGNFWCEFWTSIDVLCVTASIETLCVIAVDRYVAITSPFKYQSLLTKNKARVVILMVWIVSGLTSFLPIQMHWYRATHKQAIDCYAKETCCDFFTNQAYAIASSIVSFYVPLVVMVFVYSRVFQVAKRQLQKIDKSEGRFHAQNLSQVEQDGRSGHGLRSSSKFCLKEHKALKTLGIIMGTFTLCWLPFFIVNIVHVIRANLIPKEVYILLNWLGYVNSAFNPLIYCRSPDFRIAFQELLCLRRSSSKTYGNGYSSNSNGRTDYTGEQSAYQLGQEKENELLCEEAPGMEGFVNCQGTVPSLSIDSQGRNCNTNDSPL
In words: β2-sympatholytic action: inhibition of Isoproterenol blood pressure reduction in rats under urethane narcosis. It is filed as in vivo. As to conditions: for R.A. (relative activity), β2-sympatholytic action: Propranolol = 1.00; for R.A. (relative activity), β2-sympatholytic action / Q (footnote 6; numerically ED 50 β2 / ED 50 β1): intravenous; for Q (footnote 6; numerically ED 50 β2 / ED 50 β1): cardioselectivity quotient, rats.
Excerpt: as §1

Series [3] relates to female Swiss mice. In words: in vivo. The conditions noted are these: mouse. The procedure:
(§2) The acute toxicity was determined on groups of 10 or 20 female Swiss mice weighing 20-26 g, the compounds being administered intraperitoneally.

Series [4] can be described thus: in vivo. As to conditions: mouse. Here is the method:
as §2

Series [5] can be described thus: Stability to light and to air. It is filed as physicochemical. The conditions noted are these: compared to 7-amino-4-hydroxy-1,2-benzisothiazole.

T1 sequence (P18090 whole entry): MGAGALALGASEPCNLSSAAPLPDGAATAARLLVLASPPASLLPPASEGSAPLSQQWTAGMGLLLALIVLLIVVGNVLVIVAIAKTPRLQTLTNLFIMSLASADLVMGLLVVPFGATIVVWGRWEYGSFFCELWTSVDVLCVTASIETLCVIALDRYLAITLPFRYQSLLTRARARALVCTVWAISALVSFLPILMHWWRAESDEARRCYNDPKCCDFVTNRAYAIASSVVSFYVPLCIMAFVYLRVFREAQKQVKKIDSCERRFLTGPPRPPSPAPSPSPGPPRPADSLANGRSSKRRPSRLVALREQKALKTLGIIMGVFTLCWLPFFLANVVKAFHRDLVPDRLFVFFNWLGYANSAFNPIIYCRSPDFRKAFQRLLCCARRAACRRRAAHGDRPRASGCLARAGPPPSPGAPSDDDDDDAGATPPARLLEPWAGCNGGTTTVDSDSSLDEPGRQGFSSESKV

`COCC(C)NCC(O)COc1cccc2sncc12` (stereo not drawn) [IX, 4-[2-hydroxy-3-(1-methoxy-propyl-2-amino)-propoxy]-1,2-benzisothiazole]: in series [1], the “R.A. (relative activity), β1-sympatholytic action” value is listed as 2.48. Further, the “R.A. (relative activity), β2-sympatholytic action” value in series [2] (rats under urethane narcosis) stood at 0.26. In addition, in series [2], the “Q (footnote 6; numerically ED 50 β2 / ED 50 β1)” value turned out to be 8.90. The “Therapeutic range, relative” value in series [3] is listed as 3.11.

With `CC(C)NCC(O)COc1cccc2sncc12` (stereo not drawn) [Example III, 4-(2-hydroxy-3-isopropylamino-propoxy)-1,2-benzisothiazole], the “R.A. (relative activity), β1-sympatholytic action” value in series [1] came to 6.47. For the same molecule, the “R.A. (relative activity), β2-sympatholytic action” value in series [2] (rats under urethane narcosis) amounted to 2.71. Moreover, in series [2], the “Q (footnote 6; numerically ED 50 β2 / ED 50 β1)” value came to 2.21. The selectivity ratio in series [4] amounted to 32700. Further, the “Therapeutic range, relative” value in series [3] was found to be 3.72.

Turning to `CC(C)NCC(O)c1ccc(O)c(O)c1` (stereo not drawn) [Isoproterenol, reference compound], the “reduction of the mean pressure of the carotid artery, average” value in series [2] (Isoproterenol 0.215 μg/kg i.v., rats under urethane narcosis) is given as 30%.

Turning to `C#CC(C)(C)NCC(O)COc1cccc2sncc12` (stereo not drawn) [VIII, 4-[2-hydroxy-3-(2-methyl-3-but-2-ynylamino)-propoxy]-1,2-benzisothiazole], in series [1], the “R.A. (relative activity), β1-sympatholytic action” value was 5.35. Moreover, in series [2] (rats under urethane narcosis), the “R.A. (relative activity), β2-sympatholytic action” value came out at 1.98. In series [2], the “Q (footnote 6; numerically ED 50 β2 / ED 50 β1)” value was found to be 2.50. Besides, in series [3], the “Therapeutic range, relative” value is reported as 9.11.

In the case of `CC(=O)Nc1ccc(OC(C)=O)c2cnsc12` [7-acetamino-4-acetoxy-1,2-benzisothiazole], the “stability to light and to air” value in series [5] is “increased stability to light and to air”.

In the case of `CCC(C)(C)NCC(O)COc1cccc2sncc12` (stereo not drawn) [VI, 4-[2-hydroxy-3-(2-methyl-butyl-2-amino)-propoxy]-1,2-benzisothiazole], the “R.A. (relative activity), β1-sympatholytic action” value in series [1] is reported as 6.68. Besides, the “R.A. (relative activity), β2-sympatholytic action” value in series [2] (rats under urethane narcosis) came to 1.38. For the same molecule, the “Q (footnote 6; numerically ED 50 β2 / ED 50 β1)” value in series [2] came to 4.48. Moreover, the “Therapeutic range, relative” value in series [3] came out at 8.92.

Turning to `CC(C)(C)NCC(O)COc1cccc2sncc12` (stereo not drawn) [IV, 4-(2-hydroxy-3-tert.-butylaminopropoxy)-1,2-benzisothiazole], the “R.A. (relative activity), β1-sympatholytic action” value in series [1] turned out to be 7.55. Moreover, the “R.A. (relative activity), β2-sympatholytic action” value in series [2] (rats under urethane narcosis) was 2.84. Besides, the “Q (footnote 6; numerically ED 50 β2 / ED 50 β1)” value in series [2] was found to be 2.47. Also, in series [4], the selectivity ratio was 94500. In addition, the “Therapeutic range, relative” value in series [3] is 10.76.

Take `CCC(C)(CC)NCC(O)COc1cccc2sncc12` (stereo not drawn) [VII, 4-[2-hydroxy-3-(3-methylpentyl-3-amino)-propoxy]-1,2-benzisothiazole]: in series [1], the “R.A. (relative activity), β1-sympatholytic action” value came out at 3.75. Further, the “R.A. (relative activity), β2-sympatholytic action” value in series [2] (rats under urethane narcosis) was found to be 0.94. In addition, in series [2], the “Q (footnote 6; numerically ED 50 β2 / ED 50 β1)” value stood at 3.69. Also, the “Therapeutic range, relative” value in series [3] stood at 4.44.

Consider `CCCC(C)NCC(O)COc1cccc2sncc12` (stereo not drawn) [X, 4-[2-hydroxy-3-(pentyl-2-amino)-propoxy]-1,2-benzisothiazole], for which the “R.A. (relative activity), β1-sympatholytic action” value in series [1] was 4.88. Besides, the “R.A. (relative activity), β2-sympatholytic action” value in series [2] (rats under urethane narcosis) is reported as 0.42. Also, in series [2], the “Q (footnote 6; numerically ED 50 β2 / ED 50 β1)” value came out at 10.70. In addition, the “Therapeutic range, relative” value in series [3] turned out to be 2.72.

In the case of `CCC(C)NCC(O)COc1cccc2sncc12` (stereo not drawn) [V, 4-(2-Hydroxy-3-sec.-butylamino-propoxy)-1,2-benzisothiazole], in series [1], the “R.A. (relative activity), β1-sympatholytic action” value came to 8.04. Further, the “R.A. (relative activity), β2-sympatholytic action” value in series [2] (rats under urethane narcosis) is 1.08. In series [2], the “Q (footnote 6; numerically ED 50 β2 / ED 50 β1)” value amounted to 6.93. For the same molecule, the “Therapeutic range, relative” value in series [3] is 7.18.
